Our source for the IC50 values is ChEMBL document CHEMBL4417633, “Inhibitory polypeptides specific to WNT inhibitors” (2017).

The target in experiment [1] is T1, Dickkopf-related protein 1 (Homo sapiens, UniProt O94907).
T1 sequence (O94907 whole entry): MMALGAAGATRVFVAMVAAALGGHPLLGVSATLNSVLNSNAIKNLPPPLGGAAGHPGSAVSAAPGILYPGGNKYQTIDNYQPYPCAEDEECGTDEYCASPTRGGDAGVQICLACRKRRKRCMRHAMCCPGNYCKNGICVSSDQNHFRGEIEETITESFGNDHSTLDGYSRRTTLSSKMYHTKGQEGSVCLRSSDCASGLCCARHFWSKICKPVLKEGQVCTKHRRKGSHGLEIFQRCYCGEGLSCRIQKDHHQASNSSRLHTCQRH
Nature of the experiment: Inhibition of biotin-labeled human recombinant DKK1 assessed as reduction in DKK1 interaction with LRP-6/Fc incubated overnight by chemiluminescence based Alpha-screen assay. Background: Bead proximity is the source of the signal in Alpha formats.

The target of experiment [2] is T2, Dickkopf WNT-signaling pathway inhibitor 1 (Rattus norvegicus, UniProt A6I0Z0).
T2 sequence (A6I0Z0 whole entry): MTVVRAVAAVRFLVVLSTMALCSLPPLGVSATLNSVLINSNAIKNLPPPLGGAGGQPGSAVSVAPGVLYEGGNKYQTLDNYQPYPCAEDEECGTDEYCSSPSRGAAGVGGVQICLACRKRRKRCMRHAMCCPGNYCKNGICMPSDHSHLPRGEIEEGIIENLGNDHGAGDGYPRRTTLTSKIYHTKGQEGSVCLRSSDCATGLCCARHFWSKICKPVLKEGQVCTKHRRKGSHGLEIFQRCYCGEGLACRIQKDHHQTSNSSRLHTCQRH
Nature of the experiment: Inhibition of biotin-labeled rat recombinant DKK1 assessed as reduction in DKK1 interaction with LRP-6/Fc incubated overnight by chemiluminescence based Alpha-screen assay.

Where a SMILES comes first, the peptide text is derived from it.

One may read the IC50 as the concentration that inhibits the measured activity by half. For `CSCC[C@H](NC(=O)[C@@H]1CCCN1C(=O)[C@H](Cc1ccc(O)cc1)NC(=O)[C@H](CS)NC(=O)[C@H](Cc1cnc[nH]1)NC(=O)[C@H](CC(N)=O)NC(=O)[C@H](Cc1ccc(O)cc1)NC(=O)[C@H](CC(N)=O)NC(=O)CNC(=O)[C@H](CS)NC(=O)[C@H](CCC(N)=O)NC(=O)[C@H](Cc1ccccc1)NC(=O)[C@H](Cc1ccc(O)cc1)NC(=O)[C@H](CO)NC(=O)[C@H](C)NC(=O)[C@@H]1CCCN1C(=O)[C@@H](N)CS)C(=O)N[C@@H](CCC(=O)O)C(=O)N[C@@H](Cc1c[nH]c2ccccc12)C(=O)N[C@@H](CCCNC(=N)N)C(=O)N[C@@H](CS)C(=O)N[C@@H](CC(=O)O)C(=O)NCC(=O)N[C@@H](Cc1ccccc1)C(=O)N[C@@H](CC(C)C)C(=O)N[C@@H](CC(=O)O)C(=O)N[C@@H](CS)C(=O)N[C@H](C(=O)N[C@@H](CC(=O)O)C(=O)NCC(=O)N[C@@H](CO)C(=O)N[C@@H](CC(=O)O)C(=O)N[C@@H](CCC(=O)O)C(=O)N[C@@H](CCCCN)C(=O)NCC(=O)N[C@@H](CS)C(=O)N1CCC[C@H]1C(=O)N[C@@H](Cc1ccc(O)cc1)C(=O)N[C@@H](CCCNC(=N)N)C(=O)N[C@H](C(=O)O)[C@@H](C)O)C(C)C` (H-CPASYFQCGNYNHCYPMEWRCDGFLDCVDGSDEKGCPYRT-OH), the IC50 in experiment [1] and in experiment [2] was at most 1 nM throughout.

With `CSCC[C@H](NC(=O)[C@@H]1CCCN1C(=O)[C@H](Cc1ccc(O)cc1)NC(=O)[C@H](CS)NC(=O)[C@H](Cc1cnc[nH]1)NC(=O)[C@@H]1CCCN1C(=O)[C@H](Cc1cnc[nH]1)NC(=O)[C@H](CC(N)=O)NC(=O)[C@H](CCCNC(=N)N)NC(=O)[C@H](CS)NC(=O)[C@H](CCC(N)=O)NC(=O)[C@H](Cc1ccccc1)NC(=O)[C@H](Cc1ccc(O)cc1)NC(=O)[C@H](CO)NC(=O)[C@H](C)NC(=O)[C@@H]1CCCN1C(=O)[C@@H](N)CS)C(=O)N[C@@H](CCC(=O)O)C(=O)N[C@@H](Cc1c[nH]c2ccccc12)C(=O)N[C@@H](CCCNC(=N)N)C(=O)N[C@@H](CS)C(=O)N[C@@H](CC(=O)O)C(=O)NCC(=O)N[C@@H](Cc1ccccc1)C(=O)N1CCC[C@H]1C(=O)N[C@@H](CC(=O)O)C(=O)N[C@@H](CS)C(=O)N[C@H](C(=O)N[C@@H](CC(=O)O)C(=O)NCC(=O)N[C@@H](CO)C(=O)N[C@@H](CC(=O)O)C(=O)N[C@@H](CCC(=O)O)C(=O)N[C@@H](CCCCN)C(=O)NCC(=O)N[C@@H](CS)C(=O)N1CCC[C@H]1C(=O)N[C@@H](Cc1ccc(O)cc1)C(=O)N[C@@H](CCCNC(=N)N)C(=O)N[C@H](C(=O)O)[C@@H](C)O)C(C)C` (H-CPASYFQCRNHPHCYPMEWRCDGFPDCVDGSDEKGCPYRT-OH), the 50% inhibitory concentration (IC50) in experiment [1] and in experiment [2] was at most 1 nM in each case.

As to `CSCC[C@H](NC(=O)[C@@H]1CCCN1C(=O)[C@H](Cc1ccc(O)cc1)NC(=O)[C@H](CS)NC(=O)[C@H](Cc1cnc[nH]1)NC(=O)[C@H](CC(N)=O)NC(=O)[C@H](Cc1cnc[nH]1)NC(=O)[C@H](Cc1ccc(O)cc1)NC(=O)[C@H](CCCNC(=N)N)NC(=O)[C@H](CS)NC(=O)[C@H](CCC(N)=O)NC(=O)[C@H](Cc1ccccc1)NC(=O)[C@H](Cc1ccc(O)cc1)NC(=O)[C@H](CO)NC(=O)[C@@H](NC(=O)[C@@H]1CCCN1C(=O)[C@@H](N)CS)C(C)C)C(=O)N[C@@H](CCC(=O)O)C(=O)N[C@@H](Cc1c[nH]c2ccccc12)C(=O)N[C@@H](CCCNC(=N)N)C(=O)N[C@@H](CS)C(=O)N[C@@H](CC(=O)O)C(=O)NCC(=O)N[C@@H](Cc1ccccc1)C(=O)N1CCC[C@H]1C(=O)N[C@@H](CC(=O)O)C(=O)N[C@@H](CS)C(=O)N[C@@H](CCC(=O)O)C(=O)N[C@@H](CC(=O)O)C(=O)N[C@@H](C)C(=O)N[C@@H](CO)C(=O)N[C@@H](CC(=O)O)C(=O)N[C@@H](CCC(=O)O)C(=O)N[C@@H](CCC(=O)O)C(=O)NCC(=O)N[C@@H](CS)C(=O)N1CCC[C@H]1C(=O)N[C@@H](Cc1ccc(O)cc1)C(=O)N[C@@H](CCCNC(=N)N)C(=O)N[C@H](C(=O)O)[C@@H](C)O` (H-CPVSYFQCRYHNHCYPMEWRCDGFPDCEDASDEEGCPYRT-OH), the IC50 in experiment [1] and in experiment [2] was at most 1 nM throughout.

For `CSCC[C@H](NC(=O)[C@@H]1CCCN1C(=O)[C@H](Cc1ccc(O)cc1)NC(=O)[C@H](CS)NC(=O)[C@H](Cc1cnc[nH]1)NC(=O)[C@H](CC(N)=O)NC(=O)[C@H](Cc1cnc[nH]1)NC(=O)[C@H](CCCCN)NC(=O)[C@H](CCCNC(=N)N)NC(=O)[C@H](CS)NC(=O)[C@H](CCCCN)NC(=O)[C@H](Cc1ccccc1)NC(=O)[C@H](Cc1ccc(O)cc1)NC(=O)[C@H](CO)NC(=O)[C@H](C)NC(=O)[C@@H]1CCCN1C(=O)[C@@H](N)CS)C(=O)N[C@@H](CCC(=O)O)C(=O)N[C@@H](Cc1c[nH]c2ccccc12)C(=O)N[C@@H](CCCNC(=N)N)C(=O)N[C@@H](CS)C(=O)N[C@@H](CC(=O)O)C(=O)NCC(=O)N[C@@H](Cc1ccccc1)C(=O)N[C@@H](CCC(N)=O)C(=O)N[C@@H](CC(=O)O)C(=O)N[C@@H](CS)C(=O)N[C@@H](CCC(=O)O)C(=O)N[C@@H](CC(=O)O)C(=O)NCC(=O)N[C@@H](CO)C(=O)N[C@@H](CC(=O)O)C(=O)N[C@@H](CCC(=O)O)C(=O)N[C@@H](CCC(N)=O)C(=O)N[C@@H](C)C(=O)N[C@@H](CS)C(=O)N1CCC[C@H]1C(=O)N[C@@H](Cc1ccc(O)cc1)C(=O)N[C@@H](CCCNC(=N)N)C(=O)N[C@H](C(=O)O)[C@@H](C)O` (H-CPASYFKCRKHNHCYPMEWRCDGFQDCEDGSDEQACPYRT-OH), the IC50 in experiment [1] and in experiment [2] was at most 1 nM throughout.

As to `CC[C@H](C)[C@H](NC(=O)[C@H](CCCCN)NC(=O)[C@H](CC(=O)O)NC(=O)[C@H](C)NC(=O)[C@H](CS)NC(=O)[C@H](CCSC)NC(=O)[C@H](Cc1ccccc1)NC(=O)[C@H](CCC(=O)O)NC(=O)[C@H](CC(N)=O)NC(=O)[C@H](CO)NC(=O)[C@@H]1CCCN1C(=O)[C@@H](N)CS)C(=O)N[C@@H](CS)C(=O)N[C@@H](Cc1ccccc1)C(=O)N1CCC[C@H]1C(=O)N[C@@H](CC(C)C)C(=O)N[C@@H](CO)C(=O)N[C@@H](Cc1ccccc1)C(=O)N[C@@H](CC(C)C)C(=O)N[C@@H](CS)C(=O)N[C@@H](CC(=O)O)C(=O)NCC(=O)N[C@@H](CCC(=O)O)C(=O)N[C@@H](CC(N)=O)C(=O)N[C@@H](CC(=O)O)C(=O)N[C@@H](CS)C(=O)N[C@@H](CC(C)C)C(=O)N[C@@H](CC(=O)O)C(=O)NCC(=O)N[C@@H](CO)C(=O)N[C@@H](CC(=O)O)C(=O)N[C@@H](CCC(=O)O)C(=O)N[C@@H](CC(=O)O)C(=O)N[C@@H](Cc1ccc(O)cc1)C(=O)N[C@@H](CS)C(=O)N1CCC[C@H]1C(=O)N[C@@H](CO)C(=O)N[C@@H](CCCNC(=N)N)C(=O)N[C@H](C(=O)O)[C@@H](C)O` (H-CPSNEFMCADKICFPLSFLCDGENDCLDGSDEDYCPSRT-OH), the IC50 in experiment [1] and in experiment [2] was at most 1 nM in each case.
